Literature values as cited in PMC10707982, “Solubility and Thermodynamics Data of Cabozantinib Malate in Various Aqueous Solutions of Dimethyl Sulfoxide at Different Temperatures” (Molecules, 2023).

Parameters: method as in doi:10.1016/j.molliq.2020.115146
Conditions: neat solvent; cited from earlier work

SMILES	HSP of neat solvent (δ1, δ2)
C[S+](C)[O-] [DMSO, dimethyl sulfoxide]	23.60 MPa^1/2
O [H2O, water]	47.80 MPa^1/2
